Like-named read-outs stand apart in the source and are kept apart here.
Tests used:
[1] = test system: DU145 prostate cancer cells; experiment: Cytotoxicity, MTT method, DU145; details: read-out: Cytotoxicity (IC50, μM) DU145
Method: The cell suspension in the culture medium was plated into each well of 96-well plates (10,000 cells/well/100 μL). After 24 h, testing compounds were added, and then the plates were incubated for an additional 24 h in a humidified atmosphere of 5% CO2 at 37° C. […] The IC50 value was determined by linear interpolation from the growth inhibition curve.

[2] = test system: Raji B cells (Burkitt's lymphoma cells); experiment: Cytotoxicity, cell count, Raji (Example 4); details: read-out: Cytotoxicity (IC50, μM) Raji
Method: (§1) Raji cells and MB-468 cells were purchased from American Tissue Culture (Manassas, Va.). […] Cells were harvested and counted on the third day in a Coulter Particle Counter (Beckman-Coulter Corp.: Brea, Calif.). IC50 values were calculated using GraphPad Prism 5 (GraphPad Software Inc., La Jolla, Calif.).

[3] = test system: MB-468 (triple-negative breast cancer cells); experiment: Cytotoxicity, cell count, MB-468 (Example 4); details: read-out: Cytotoxicity (IC50, μM) MB-468
Method: as §1

Row | Compound | IC50 ([1]; Homo sapiens, DU-145, 24 h) | IC50 ([2]; Homo sapiens, Raji) | IC50 [3] | further results
1 | CN1C(=O)N[C@H]2[C@@H]3NC(=O)c4ccc(-c5ccc(N)cc5)n4[C@@H]3C[C@]21O [APAA, p-aminophenylagelastatin A] | > 10 µM | – | – | –
2 | CNC(=O)N[C@H]1[C@@H]2NC(=O)c3ccc(Br)n3[C@@H]2C[C@H]1O [UAA, ureaagelastaitin A] | – | > 10 µM | > 10 µM | –
3 | debromoagelastatin A [DeBAA] | – | – | – | IC50 ([2]; cells counted on the third day): 3.16 µM; IC50 ([1]; MTT, 24 h incubation): > 10 µM; IC50 ([3]; cells counted on the third day): 3 µM
4 | CCN1C(=O)N[C@H]2[C@@H]3NC(=O)c4ccc(Br)n4[C@@H]3C[C@]21O [EAA, ethylagelastatin A] | > 10 µM | – | – | –
5 | COc1ccc(CN2C(=O)N[C@H]3[C@@H]4NC(=O)c5ccc(Br)n5[C@@H]4C[C@]32O)cc1 [N-PMBAA, N-p-methoxybenzyl agelastatin A] | > 10 µM | – | – | –
6 | CN1C(=O)N[C@@H]2[C@H]3NC(=O)c4ccc(Br)n4[C@H]3C[C@@]21O [ent-AA] | – | – | – | IC50 ([1]; MTT, 24 h incubation): > 10 µM
7 | CN1C(=O)N[C@H]2[C@@H]3NC(=O)c4ccc(C5CC5)n4[C@@H]3C[C@]21O [CPAA, cyclopropylagelastatin A] | 5 µM | 0.4 µM | 1 µM | –
8 | CN1C(=O)N[C@H]2[C@@H]3NC(=O)c4ccc(-c5ccccc5)n4[C@@H]3C[C@]21O [PAA, phenylagelastatin A] | 6 µM | 3.8 µM | 1.5 µM | –
9 | CCN1C(=O)N[C@H]2[C@@H]3NC(=O)c4cccn4[C@@H]3C[C@]21O [DeBEAA, debromoethylagelastatin A] | > 10 µM | – | – | –

Source: patent US9464093B2, “Substituted imidazo[4',5':4,5]cyclopenta[1,2-e]pyrrolo[1,2-a]pyrazines and oxazolo[4',5':4,5]cyclopenta[1,2-e]pyrrolo[1,2-a]pyrazines for treating brain cancer” (Mayo Foundation for Medical Education and Research, priority 2012, dated 2016)
